According to PMC9457798, “In Vivo Anticancer Evaluation of 6b, a Non-Covalent Imidazo[1,2-a]quinoxaline-Based Epidermal Growth Factor Receptor Inhibitor against Human Xenograft Tumor in Nude Mice” (Molecules, 2022):

Experiments:
A549 xenograft tumor = assay: A549-cell-induced lung cancer xenograft model in nude mice; settings: for % tumor growth inhibition: intraperitoneally once a week, 21 days; for Average tumor weight: compared with the other groups; for Cytotoxic effect on the tumor (H&E staining): excised tumors
Method: The animal experiments were performed as per the guidelines of the Committee for the Purpose of Control and Supervision of Experiments on Animals (CPCSEA) with the approval of the Institutional Animal Ethics Committee (# IAEC/19/14). Four–five-week-old male athymic nude mice were procured from Vivo Bio Tech Ltd., Hyderabad, India. Animals were kept in an individually ventilated caging (IVC) system in a pathogen-free environment with standard conditions of temperature: 22 ± 1 °C, humidity: 50 ± 10%, and a 12 h light/dark cycle maintained in the National Toxicology Center (NTC) in the National Institute of Pharmaceutical Education and Research (NIPER), Mohali. Throughout the study, animals were fed with a standard rodent chow diet and water ad libitum.
Xenograft, the nude mice model, was developed by injecting A549 (1 × 10 ^6 cells, suspended in Matrigel™) subcutaneously into the right flank of each mouse. Tumor-bearing mice were randomly divided into four groups with seven animals per group after attaining an anticipated tumor volume of >80 mm^3. […] Treatment was given intraperitoneally once a week for a period of 21 days. Tumor volume and body weight were measured weekly during the study. Vernier caliper was used to measure the size of A549-cell-induced tumors weekly, starting from two weeks after inoculation.
Tumors were surgically removed from animals, sliced, and fixed in 10% v/v formal saline. For the histological study, the sliced tumors were processed and embedded in paraffin; sections of 5 µm were mounted on poly-L-lysine-coated glass slides. Sections were then stained with hematoxylin & eosin (H&E) to observe the structural alterations as described.

[1] = tested on: H1975 lung cancer cells with mutant EGFR (L858R/T790M); settings: gefitinib-resistant H1975, EGFR L858R/T790M; earlier report of the authors; read-out: IC50 (anti-proliferative, H1975 cells); cited from earlier work
[2] = In vitro microsomal stability, mouse liver microsomes
Method: (§1) Compounds were incubated at a final concentration of 1 µM with human (HLM) and mouse (MLM) at 0.5 mg/mL and NADPH (1 mM) in 100 mM phosphate buffer (pH 7.4) at 37 °C. The reactions were terminated at 0 and 30 min by the addition of cold acetonitrile containing propranolol (50 ng/mL) as an internal standard.

EGFR = tested on: EGFR; parameters: method as in PMID 25342981, PMID 27121209; settings: earlier report of the authors; read-out: IC50 (EGFR inhibition); cited from earlier work
[3] = In vitro microsomal stability, human liver microsomes; type: in vitro ADME; settings: for microsomal CLint at 1 µM / half-life at 1 µM / remaining at 0.5 h, 1 µM: human, liver microsomes, 0.5 mg/mL microsomes; for microsomal CLint at 1 µM / half-life at 1 µM: pH 7.4, NADPH; for microsomal CLint at 1 µM: read-out: CLint HLM; for half-life at 1 µM: read-out: t½ HLM; for remaining at 0.5 h, 1 µM: NADPH 1 mM, pH 7.4, 37 °C, read-out: % Remaining after 30 min HLM
Method: as §1

[4] = tested on: PI3K/AKT pathway (AKT, P-AKT, PI3K, PTEN); assay: Western blot (immunoblotting) of tumor tissue from A549 xenograft mice; type: in vivo, nude mice; settings: for PTEN protein level in tumors: gefitinib 30 mg/kg, 6b both doses, vs control untreated mice
Method: Tissue that had been kept at −80 °C was removed and placed on ice for 5 min. A total of 20 mg of tissue was diced and placed in a 1.5 mL microcentrifuge tube kept on ice. The tissue was lysed to extract the proteins using RIPA lysis buffer with a cocktail (IX) of phosphatase and protease inhibitors, followed by sonication for 30 min. After that, the mixture was centrifuged, and the supernatant was collected for protein estimation using the Bradford assay. Thereafter, immunoblotting was performed using SDS-PAGE for the separation and resolving of individual proteins by their molecular weights. The proteins were further transferred to nitrocellulose membranes, and blocking was performed in 3% powdered milk solution. Further, the membrane was washed using TBST buffer and was incubated in primary antibody (CST) for 3 h. After incubation, the membrane was washed in TBST and re-incubated for 1h in secondary antibody. The immune complex was detected using ChemiDoc^TM (BioRad) after washing the membrane with TBST [46].

[5] = tested on: Twist, Zeb1, and Hif-1α gene expression; assay: qPCR analysis of Twist, Zeb1 and Hif-1α in tumor tissue from treated mice; type: in vivo, nude mice; settings: vs untreated mice
in vitro = settings: mouse, microsomes, pH 7.4
Method: as §1

[6] = mouse, liver microsomes, pH 7.4

| Structure (SMILES) | Kaplan–Meier survival (A549 xenograft tumor; 30 mg/kg, i.p.) | Average tumor weight (A549 xenograft tumor; 30 mg/kg, i.p.) | Cytotoxic effect on the tumor (H&E staining) (A549 xenograft tumor) | microsomal CLint at 1 µM [3] [µL/min/mg] | half-life at 1 µM [3] [h] | remaining at 0.5 h, 1 µM [3] [%] | PTEN protein level in tumors [4] | Expression of the Hif-1α gene in tumors [5] | other results |
| --- | --- | --- | --- | --- | --- | --- | --- | --- | --- |
| COc1cc(C=Nc2c(C#N)nc3c(-c4cc(OC)c(OC)c(OC)c4)nc4ccccc4n23)cc(OC)c1OC [6b, 1-((3,4,5-Trimethoxybenzylidene)amino)-4-(3,4,5-trimethoxyphenyl)imidazo[1,2-a]quinoxaline-2-carbonitrile] | improved the survival of the mice | lower | marked cytotoxic damage | 80 | 0.287 | 29.9 | increased | decreased | % tumor growth inhibition (A549 xenograft tumor; 10 mg/kg (LD)): 16%; Effect on tumor volume / size (A549 xenograft tumor; 30 mg/kg, i.p., vs tumor control): significantly decreased the size of the tumors; % tumor growth inhibition (A549 xenograft tumor; 30 mg/kg): 33%; IC50 [1]: 3650 nM; Stability in mouse liver microsomes (in words) [2]: good stability; half-life at 1 µM [2, 6]: 0.602 h; microsomal CLint at 1 µM [2, 6]: 38 µL/min/mg; remaining at 0.5 h, 1 µM [2, 6]: 56.2%; IC50 (EGFR): 211 nM; Stability in human liver microsomes (in words) [3]: good stability; AKT, P-AKT and PI3K protein level in tumor masses ([4]; LD (10 mg/kg) and HD (30 mg/kg), vs untreated mice): decreased; Expression of EMT-regulating genes Twist and Zeb1 in tumors [5]: decreased |
| COc1cc2ncnc(Nc3ccc(F)c(Cl)c3)c2cc1OCCCN1CCOCC1 [gefitinib, reference compound] | improved the survival of the mice | lower | marked cytotoxic damage |  |  |  | increased | decreased | Effect on tumor volume / size (A549 xenograft tumor; mouse, in vivo): suppression of tumor volume to some extent |
| NC(=O)N1c2ccccc2C=Cc2ccccc21 [Carbamazepine, reference compound] |  |  |  | 3 | 7.97 | 95.7 |  |  | half-life at 1 µM (in vitro): 2.17 h; microsomal CLint at 1 µM (in vitro): 11 µL/min/mg; remaining at 0.5 h, 1 µM (in vitro): 85.2% |
